The structures appear in SMILES notation.

In the assay the target is Platelet-activating factor receptor (Mus musculus) (UniProt Q62035). Kind of assay: Ability to protect mice from lethal effects of an injection of PAF in vivo. Format: functional, organism-based. The note with it: Mus sp.
Chain of Platelet-activating factor receptor (Mus musculus) (Q62035 whole entry): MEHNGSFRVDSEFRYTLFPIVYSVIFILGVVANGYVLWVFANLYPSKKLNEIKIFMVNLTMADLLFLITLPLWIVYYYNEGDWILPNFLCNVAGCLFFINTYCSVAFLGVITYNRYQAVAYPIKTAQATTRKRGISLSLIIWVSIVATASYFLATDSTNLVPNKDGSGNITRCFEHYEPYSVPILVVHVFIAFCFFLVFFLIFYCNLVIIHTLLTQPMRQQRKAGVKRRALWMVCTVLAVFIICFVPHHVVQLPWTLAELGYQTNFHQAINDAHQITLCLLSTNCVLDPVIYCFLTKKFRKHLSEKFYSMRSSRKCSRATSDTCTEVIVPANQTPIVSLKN
`CCOC(=O)C1=C(c2ccc(-c3sc(C)nc3C)cc2)NC(C)=C(C(=O)Nc2ccccn2)C1c1ccccc1Cl` (stereo not given): the 50% effect level (ED50) was put at a dose of 7.4 mg/kg.
`CCOC(=O)C1=C(c2ccc(-n3c(C)nc4cnccc43)cc2)N=C(C)/C(=C(/O)OC(C)(C)C)C1c1ccccc1Cl` (stereo not given): the 50% effective dose (ED50) (as a rule, the dose at which the effect has come halfway, by size or by number of responders) turned out to be 2 mg/kg.
`CCOC(=O)C1=C(c2ccc(-n3c(CC)nc4cnccc43)cc2)NC(C)=C(C(=O)Nc2ccccn2)C1c1ccccc1Cl` (stereo not given) came in with an ED50 of 10.5 mg/kg.
Turning to `CCOC(=O)C1=C(c2ccc(-n3c(C)nc4cnccc43)cc2)NC(C)=C(C(N)=O)C1c1ccccc1Cl` (stereo not given), the ED50 stood at 1 mg/kg.
In turn, `CCOC(=O)C1=C(c2ccc(-n3c(C)nc4cnccc43)cc2)NC(C)=C(C(=O)Nc2ccccn2)C1c1ccccc1OC(F)(F)F` (stereo not given) had an ED50 of 0.2 mg/kg.
In turn, `CCOC(=O)C1=C(c2ccc(-c3c(C)nc4ccccn34)cc2)NC(C)=C(C(=O)Nc2ccccn2)C1c1ccccc1Cl` (stereo not given) came in with an ED50 of 92 mg/kg.
As for `CCOC(=O)C1=C(c2ccc(-n3c(C)nc4cnccc43)cc2)NC(C)=C(C(=O)O)C1c1ccccc1Cl` (stereo not given), the figure is 4.7 mg/kg.
Consider `CCOC(=O)C1=C(c2ccc(-n3ccnc3C)cc2)NC(C)=C(C(=O)Nc2ccccn2)C1c1ccccc1Cl` (stereo not given), for which the median effective dose (ED50) is 22 mg/kg.
As for `CCOC(=O)C1=C(c2ccc(-c3c(C)nc4sccn34)cc2)NC(C)=C(C(=O)Nc2ccccn2)C1c1ccccc1Cl` (stereo not given), the figure is 5.4 mg/kg.
As for `Cc1nnc2n1-c1sc(CCC(=O)N3CCOCC3)cc1C(c1ccccc1Cl)=NC2`, the figure is 2.03 mg/kg; as for `CCOC(=O)C1=C(c2ccc(-n3c(C)nc4cccnc43)cc2)NC(C)=C(C(=O)Nc2ccccn2)C1c1ccccc1Cl` (stereo not given), 23 mg/kg; as for `CCOC(=O)C1=C(c2ccc(-n3c(C)nc4cnccc43)cc2)NC(C)=C(C(=O)Nc2ccccn2)C1c1ccc(C#N)cc1` (stereo not given), 1.2 mg/kg.
Consider `CCOC(=O)C1=C(c2ccc(-n3c(C)nc(C)c3C)cc2)NC(C)=C(C(=O)Nc2ccccn2)C1c1ccccc1Cl` (stereo not given), for which the ED50 worked out at 10.5 mg/kg.
`CCOC(=O)C1=C(c2ccc(-n3c(C)nc4cnccc43)cc2)N=C(C)/C(=C(/O)OC2CCCCC2)C1c1ccccc1Cl` (stereo not given) came in with a 50% effective dose (ED50) of 4.7 mg/kg.
Regarding `CCOC(=O)C1=C(c2ccc(-n3c(C)nc4cnccc43)cc2)NC(C)=C(C(=O)Nc2ccccn2)C1c1ccccc1Cl` (stereo not given), the ED50 was found to be 0.26 mg/kg.
For `CCOC(=O)C1=C(c2ccc(-n3c(C)nc4cnccc43)cc2)N=C(C)/C(=C(/O)OCCOC)C1c1ccccc1Cl` (stereo not given), the median effective dose (ED50) came to 0.16 mg/kg.
As for `CCOC(=O)C1=C(c2ccc(-n3cc(C)nc3C)cc2)NC(C)=C(C(=O)Nc2ccccn2)C1c1ccccc1Cl` (stereo not given), the figure is 3 mg/kg; as for `CCOC(=O)C1=C(c2ccc(-n3c(C(F)(F)F)nc4cnccc43)cc2)NC(C)=C(C(=O)Nc2ccccn2)C1c1ccccc1Cl` (stereo not given), 25 mg/kg.
`CCOC(=O)C1=C(c2ccc(-n3c(C)nc4cnccc43)cc2)NC(C)=C(C(=O)NC(C)(C)C)C1c1ccccc1Cl` (stereo not given) showed a 50% effective dose (ED50) of 2.1 mg/kg.
`CCOC(=O)C1=C(c2ccc(-n3c(C)nc4cnccc43)cc2)NC(C)=C(C(=O)Nc2ccccn2)C1c1cccc2c1OCO2` (stereo not given) came in with an ED50 of 0.5 mg/kg.
`CCOC(=O)C1=C(c2ccc(-n3c(C)nnc3C)cc2)NC(C)=C(C(=O)Nc2ccccn2)C1c1ccccc1Cl` (stereo not given) registered an ED50 of 34 mg/kg.
Consider `CCOC(=O)C1=C(c2ccc(-n3c(C)nc4c(C)nc(C)cc43)cc2)NC(C)=C(C(=O)Nc2ccccn2)C1c1ccccc1Cl` (stereo not given), for which it took a dose of 0.3 mg/kg to reach the 50% effect level (ED50).
As for `CCOC(=O)C1=C(c2ccc(-n3c(C)nc4cnccc43)cc2)N=C(C)/C(=C(/O)OC)C1c1ccccc1Cl` (stereo not given), the figure is 1.5 mg/kg; as for `CCOC(=O)C1=C(c2ccc(-n3c(C)nc4cnccc43)cc2)N=C(C)/C(=C(/O)OCc2ccccc2)C1c1ccccc1Cl` (stereo not given), 2 mg/kg; as for `CCOC(=O)C1=C(c2ccc(-n3c(C)nc4cnccc43)cc2)NC(C)=C(C(=O)Nc2ccccn2)C1c1cccnc1Cl` (stereo not given), 13 mg/kg.
The same measure for `CCOC(=O)C1=C(c2ccc(-n3c(C)nc4cnccc43)cc2)NC(C)=C(C(=O)Nc2ccccn2)C1c1cccnc1` (stereo not given): 16 mg/kg.
Take `CCOC(=O)C1=C(c2ccc(-n3c(C)nc4ccncc43)cc2)NC(C)=C(C(=O)Nc2ccccn2)C1c1ccccc1Cl` (stereo not given): the median effective dose (ED50) was 16 mg/kg.
As to `CCOC(=O)C1=C(c2ccc(-c3cccnc3C)cc2)NC(C)=C(C(=O)Nc2ccccn2)C1c1ccccc1Cl` (stereo not given), the ED50 was 3.7 mg/kg.
`CCOC(=O)C1=C(c2ccc(-n3c(C)nc4cnccc43)cc2)NC(C)=C(C(=O)Nc2ccccn2)C1c1csc2ccccc12` (stereo not given) yielded a median effective dose (ED50) of 0.6 mg/kg.
As for `CCOC(=O)C1=C(c2ccc(-n3c(C)nc4cnccc43)cc2)NC(C)=C(C(=O)Nc2ccccn2)C1c1ccccn1` (stereo not given), the figure is 4.1 mg/kg.

For the origin of these results see ChEMBL document CHEMBL1125530, “1,4-Dihydropyridines as antagonists of platelet activating factor. 1. Synthesis and structure-activity relationships of 2-(4-heterocyclyl)phenyl derivatives” (J Med Chem, 1992).
